For series [1] the following is noted: cited from earlier work.
Series [2] is described as follows: Evaporation of I2 from I2 and I- mixed solutions in an open and well-ventilated space. The format is physicochemical. The note with it: initial I2 concentration 0.99 mm, open system. The source says: The effects of temperature, concentration of I2, and presence of I— on the evaporation of I2 in I2 and I— mixed solutions were investigated in an open and well-ventilated space. From the experiments, it was confirmed that the evaporation rate of I2 increased exponentially as the solution temperature increased, showing a similar trend with temperature dependence of the saturated vapor pressure of I2.
The phenomenon that I2 evaporation was expedited at higher temperature can be explained by temperature dependency of the evaporation enthalpy and saturated vapor pressure. For an open system, the vapor pressure of elemental iodine increases about 14 torr, or 0.27 psi.

Each structure is given as a SMILES string. ≈ marks a conversion by molar mass, not a printed value. Where “and” joins values, the source holds several entries; their conditions need not be identical. Equal entries are not always repeated. Where two headings read alike, the source gives them in different places.

As for `II` [Elemental iodine, Elemental iodine (I2)], the “free iodine which is soluble in water” value was 290 ppm in series [1] (20° C.), 1,100 ppm in series [1] (70° C.) and 1,250 ppm in series [1] (80° C.). Moreover, the solubility in water in series [1] (20° C.) is 0.29 g/L (≈ 1.14 mM); in series [1] (25° C.), 0.33 g/l and 1.2 mM; in series [1] (50° C.), 0.78 g/L (≈ 3.07 mM); in series [1] (80° C.) it was 1.25 g/L (≈ 4.92 mM). In addition, the “lapsed time required to reduce less than 10% of the initial concentration” value in series [2] (50° C.) is around 30 min; in series [2] (80° C.) it was around 7 min.

The values above are taken from US20230390397A1, “SYSTEM, METHOD AND PROCESS FOR SELF-STERILIZATION OF IODINE-[…]” (HDR LLC, priority 2022, published 2023).
